Tested on: agr
Assay: agr YFP transcriptional reporter assay (S. aureus AH1677 with pDB59)
Type: cell-based
Conditions: Staphylococcus aureus, 24 h, read-out: IC50 in the agr reporter assay
Experimental: Bacterial strains and culture. All bacteria were grown at 37° C. with 200 rpm shaking unless otherwise specified. S. aureus and P. aeruginosa were grown in BHI medium and LB medium, respectively. S. aureus AH1677 (with an agr-YFP reporter plasmid) and P. aeruginosa PAO1-PGSC (with a plasI-LVAgfp reporter plasmid) were used as QS transcriptional reporters and grown with 10 μg/mL chloramphenicol and 300 μg/mL carbenicillin, respectively. All other strains were grown without supplemental antibiotic. S. aureus RN6390b and P. aeruginosa PAO1-PGSC were used as WT strains in vesicle lysis experiments, while S. aureus RN9222 and P. aeruginosa PAO-JG35 were used as QS mutants. RN9222 was grown without antibiotic as it was not used as a reporter strain (i.e., it served only as QS mutant).
High-throughput screening and follow-up analysis protocols. Test compounds and positive control 1 were delivered in 2.5 nL aliquots of DMSO with an Echo 550 liquid handler (LabCyte Inc.) into black 384-well microtiter plates (Corning). All test compounds were tested at 10 μM; positive control 1 was tested at 250 nM. DMSO was used as a negative control. Overnight cultures (2 mL) of WT S. aureus (RN6390b) were grown at 37° C. with shaking at 200 rpm. These cultures were diluted 1:500 (v/v) in fresh BHI medium, at which point vesicle solutions were added to a final concentration of 1 mM phospholipid (as determined by ^31P NMR analyses). This vesicle-cell mixture was then added to the 384-well microtiter plates with a Multidrop 384 liquid-dispensing robot (Thermo Scientific) for a total volume of 50 μL per well. Plates were incubated statically for ˜24 hr at 37° C., at which point fluorescence (excitation 483, emission 530) and OD600 (absorbance at 600 nm) measurements were made using a CLARIOstarR Plus microtiter plate reader (BMG Labtech) running MARS data analysis software. Scatter plots were generated using the Collaborative Drug Discovery Vault informatics platform. The dose-response experiment using the vesicle lysis assay was performed in a 384-well plate in technical duplicate with compound concentrations of 0.1, 0.25, 0.5, 1, 2.5, 5, 10, and 20 μM. Dose-response curves were generated using variable slope (4 parameter) non-linear regression analysis for compound inhibition using GraphPad Prism software (v. 9). Analysis of the QS modulatory activity of the HTS hits and 6 (savirin) was performed using the S. aureus YFP transcriptional reporter strain. HTS hits were purchased directly from Life Chemicals, Inc. DMSO stock solutions (10 mM) of each compound were prepared and stored at −20° C. Serial dilutions (1:3) were prepared from the stock solutions in DMSO, and 2 μL aliquots of the resulting dilutions were added to the wells of black 96-well microtiter plates (Corning). Overnight cultures of the S. aureus reporter strain (2 mL) were grown at 37° C. with shaking at 200 rpm. Cultures were diluted 1:50 (v/v) into fresh BHI medium, and 198 μL of this diluted culture were added to each well containing compound, for a total volume of 200 μL per well. All plates contained a vehicle control consisting of 2 μL of DMSO and 198 μL of culture and a media control consisting of 200 μL BHI. Plates were incubated for ˜24 hours at 37° C. with shaking at 200 rpm. Fluorescence (excitation 510, emission 544) and OD600 measurements were acquired with a PerkinElmer EnVision microtiter plate reader running Envision Manager software. Background fluorescence from BHI control was subtracted from raw fluorescence reads, OD600 corrected, and finally normalized to vehicle control. Dose-response curves and IC50 values were generated using 3-parameter non-linear regression analysis for compound inhibition using GraphPad Prism software (v. 9). All compounds were tested in technical triplicate with at least 3 biological replicates.

**Q.** How did the IC50 turn out when `CC(C)c1ccc(S(=O)(=O)c2nnn3c2nc(O)c2ccccc23)cc1` [Compound 6, savirin] was run?
**A.** The IC50 was 5.5 µM.

From patent US12070445B2, “System and assay for monitoring production/release of membrane-lytic toxins in bacteria and compounds for modulating same” (priority 2021, dated 2024)
